Read-outs that look alike come from different tables or passages of the source. Values belong to the compound of their own block, whether it stands above or below them.
Key:
[1] = target: T1, Niemann-Pick C1-like 1 (NPC1L1) (Homo sapiens, UniProt Q9UHC9); test: Inhibitory effect of ezetimibe on vitamin D uptake by differentiated Caco-2 cells (facilitated diffusion); assay type: in vitro ADME; details: 150 μM ezetimibe pretreatment 2 h
T1 construct: host or cells: differentiated Caco-2 cells
T1 sequence (Q9UHC9 22-1359): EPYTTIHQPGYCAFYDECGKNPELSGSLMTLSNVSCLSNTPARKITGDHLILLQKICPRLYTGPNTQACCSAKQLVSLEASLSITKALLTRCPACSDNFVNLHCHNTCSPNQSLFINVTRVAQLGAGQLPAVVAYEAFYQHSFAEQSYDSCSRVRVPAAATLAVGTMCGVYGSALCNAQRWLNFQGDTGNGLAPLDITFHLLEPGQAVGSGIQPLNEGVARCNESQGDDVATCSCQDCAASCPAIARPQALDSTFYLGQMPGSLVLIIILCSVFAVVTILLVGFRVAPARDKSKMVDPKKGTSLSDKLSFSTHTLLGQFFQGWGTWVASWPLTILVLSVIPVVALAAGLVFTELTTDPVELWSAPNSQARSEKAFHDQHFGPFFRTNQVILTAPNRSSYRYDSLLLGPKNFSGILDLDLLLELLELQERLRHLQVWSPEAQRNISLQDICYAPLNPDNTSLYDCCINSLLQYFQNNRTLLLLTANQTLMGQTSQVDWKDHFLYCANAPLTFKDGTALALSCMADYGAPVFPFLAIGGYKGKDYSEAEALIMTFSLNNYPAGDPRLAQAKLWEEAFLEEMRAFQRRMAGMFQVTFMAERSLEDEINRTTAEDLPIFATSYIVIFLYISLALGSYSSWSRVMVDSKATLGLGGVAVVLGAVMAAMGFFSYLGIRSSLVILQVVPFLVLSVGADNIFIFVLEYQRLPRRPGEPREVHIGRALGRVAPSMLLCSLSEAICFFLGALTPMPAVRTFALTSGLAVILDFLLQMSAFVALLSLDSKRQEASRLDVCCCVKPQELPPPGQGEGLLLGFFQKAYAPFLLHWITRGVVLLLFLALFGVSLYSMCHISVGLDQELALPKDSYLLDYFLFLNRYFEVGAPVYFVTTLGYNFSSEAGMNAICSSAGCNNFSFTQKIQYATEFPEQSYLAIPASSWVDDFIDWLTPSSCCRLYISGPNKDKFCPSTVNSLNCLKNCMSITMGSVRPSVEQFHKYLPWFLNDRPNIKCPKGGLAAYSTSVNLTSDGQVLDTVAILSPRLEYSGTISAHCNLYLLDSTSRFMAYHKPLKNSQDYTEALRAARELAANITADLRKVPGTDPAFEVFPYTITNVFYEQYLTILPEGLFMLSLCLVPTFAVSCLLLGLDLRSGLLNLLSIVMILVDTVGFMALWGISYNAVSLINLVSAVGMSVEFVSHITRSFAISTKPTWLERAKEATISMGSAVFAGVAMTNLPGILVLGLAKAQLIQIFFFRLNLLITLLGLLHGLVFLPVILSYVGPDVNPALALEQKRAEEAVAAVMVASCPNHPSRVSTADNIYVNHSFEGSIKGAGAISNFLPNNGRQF
Method: In the present study, we evaluated the involvement of facilitated diffusion in the cellular uptake of each mixed micellar vitamin D2–D7 by using ezetimibe, an inhibitor of the protein Niemann-Pick C1-like 1 (NPC1L1). Ezetimibe was dissolved in dimethyl sulfoxide (DMSO), and then was added at a final concentration of 150 μM to the culture medium. At this time, the final concentration of DMSO was 1.5% (v/v). The differentiated Caco-2 cells were preincubated at 37 °C for 2 h with ezetimibe-containing culture medium (0.5 mL). The cells were washed two times with FBS-free DMEM (0.5 mL) and then treated with the medium containing mixed micellar vitamin D (0.5 mL) for 2 h, as described above. After treatment, cellular vitamin D, residual mixed micellar vitamin D, and the cellular protein content were evaluated as described in the previous subsection.

rats = details: cited from earlier work
dispersed Caco-2 cells = test: Uptake of vitamin D from mixed micelles by dispersed Caco-2 cells; assay type: in vitro ADME, human; details: NoPC mixed micelles, 2 h, cells dispersed with trypsin; compared among vitamins D2–D7
From the text: Since 2001, we have reported that lysophospholipids enhance the uptake of micellar carotenoids in Caco-2 cells. […] In the present study, using the same method, we examined whether the mechanism for the enhancing effect of lysophosphatidylcholine could be adapted to vitamin D, as well. To evaluate the impact of the degree of cell-cell adhesion/cell-matrix adhesion on vitamin D uptake by cells, we prepared in two different ways: i) dispersed Caco-2 cells without cell-cell adhesion/cell-matrix adhesion and ii) Caco-2 cells with insufficient cell-cell adhesion.
(i): The dispersed cells were prepared by trypsin treatment. After collecting the cells in the culture medium, the number of cells was counted and diluted with the medium. The cells were washed two times with FBS-free DMEM and then seeded in culture plate of 24-well for suspension cultures (SC plate; Greiner Bio-One, Frickenhausen, Germany) at a density of 15 × 10^4 cells per well containing the FBS-free DMEM (0.5 mL).
Subsequent operations are common to the two models of cells. The medium consisting of mixed micellar vitamin D (0.5 mL) was added to adhered cells or dispersed cells in individual wells containing FBS-free DMEM (0.5 mL), resulting in a total medium volume of 1.0 mL/well, and the final start concentrations of mixed micellar components were one-half the initial concentration. The cells were incubated in the same conditions as described above, i.e., in a CO2 incubator at 37 °C for 2 h, and then the cells were washed with 2 mM taurocholate/PBS, followed by two times with PBS. The vitamin D uptake and residual mixed micellar vitamin D were evaluated as the previous subsection, but the filtrate of residual mixed micellar vitamin D was diluted with a 2x-volume of H2O. The cellular protein content was also determined as above.

[2] = test system: differentiated Caco-2 cells; test: Uptake of vitamin D solubilized in mixed micelles by differentiated Caco-2 cells; assay type: in vitro ADME, human; details: 2 h; for Vitamin D uptake by differentiated Caco-2 cells: vitamin D 1 μM, compared among vitamins D2–D7
Method: Caco-2 cells were purchased from the American Type Culture Collection (Rockville, MD, USA). DMEM containing 10% FBS, 4 mM L-glutamine, penicillin and streptomycin (40 units/mL and 40 μg/mL, respectively), and nonessential amino acids (0.1 mM) were used as the culture medium. The cells were grown in the culture medium at 37 °C in a humidified atmosphere of 5% CO2 in air and then were cultured by passaging two times per week. We used differentiated Caco-2 cells, which have been widely used as a human intestinal model, for vitamin D uptake experiments. To induce differentiation of Caco-2 cells, the cells were seeded in culture plate of 24-well at a density of 5 × 10^4 cells per well containing 0.5 mL of the culture medium. Then, the medium was changed with fresh medium two times per week for 20–22 d. We have previously reported that the cell monolayers obtained by this method had sufficient cell-cell adhesion.
The mixed micelles were prepared as described in our previous reports. All of the components, i.e., taurocholate, monoolein, oleic acid, lysophosphatidylcholine, and vitamin D, were dissolved in an appropriate solvent. Portions of these solvent solutions were moved to glass tubes. The solvent was dried up with argon gas and further centrifugal evaporator. The dry matter was dispersed into FBS-free DMEM (same as the culture medium described above but without FBS). To remove any vitamin D not solubilized in the micelles, the resulting solution was passed through a filter (the pore size was 0.2-μm). The materials of mixed micelle and their concentrations were taurocholate (2 mM), monoolein (100 μM), oleic acid (33 μM), lysophosphatidylcholine (0 or 50 μM), and vitamin D (1 μM), respectively, unless otherwise stated. The concentrations were same as those used in our previous study. […] One part of the mixed micelles was diluted with four parts of methylene chloride/methyl alcohol (1:4, v/v), and then a portion (30 μL) was analyzed by high-pressure liquid chromatography (HPLC) as explained in the “2.8. […]

[3] = test system: differentiated Caco-2 cells; test: Cellular cholesterol in differentiated Caco-2 cells treated with mixed micelles containing lysophosphatidylcholine; assay type: cell-based, human; details: 2 h, no vitamin D
Method: The saponification reaction was performed as follows. A portion (0.8 mL) of the cell homogenate was mixed with 200 μL of 40 μM β-sitosterol/ethyl alcohol as an internal standard, 85 μL of 10 M KOH, and 0.6 mL ethyl alcohol and then incubated at 60 °C for 2 h under argon gas. After cooling the reaction solution, cholesterol was extracted with ethyl acetate and n-hexane in the same manner as the extraction of vitamin D described above. The extract was additionally washed with 0.8 mL H2O before the solvent completely dried and then dissolved in 200 μL of methylene chloride/methyl alcohol/H2O (9:81:10, v/v/v). An aliquot (40 μL) was then subjected to HPLC as described in the “2.8. HPLC Analysis” subsection below. The cellular protein content was also determined as above.
Vitamin D and cholesterol were analyzed by using the HPLC system and columns which were the same as in our previous report. Mobile phase X was ethanenitrile/methyl alcohol/H2O (75:15:10, v/v/v), mobile phase Y was methyl alcohol/ethyl acetate (70:30, v/v), and mobile phase Z was methyl alcohol/isopropyl alcohol (70:30, v/v). These mobile phases contained 0.1% ammonium acetate. […] Vitamin D and cholesterol were quantified from the peak area at 265 nm and 210 nm, respectively, by using the respective calibration curve of the authentic standard.

SMILES: O=C1[C@H](CC[C@H](O)c2ccc(F)cc2)[C@@H](c2ccc(O)cc2)N1c1ccc(F)cc1 [ezetimibe]
Vitamin-D3 uptake blocked by ezetimibe [1]: 20–30% | inhibition at 150 µM ([1]; relative to vehicle control, NoPC and lysoPC mixed micelles, read-out: Inhibition of the uptakes of vitamins D2–D7 by ezetimibe): ~20%

SMILES: C=C1CC[C@H](O)C/C1=C/C=C1\CCC[C@]2(C)[C@@H]([C@H](C)CCCC(C)C)CC[C@@H]12 [Vitamin D3]
Anti-rickets activity, comparison of vitamins D (rats; line test, vitamins D provided as a crystal): highest activities and were similar

SMILES: CCCCCCCCCCCCCCCC(=O)OC[C@@H](O)COP(=O)([O-])OCC[N+](C)(C)C [lysophosphatidylcholine, 1-16:0-2-OH-sn-glycerol-3-phosphocholine]
Enhancement of vitamin D uptake by lysophosphatidylcholine compared with NoPC ([2]; differentiated Caco-2 cells, lysophosphatidylcholine 50 μM in mixed micelles, average for six vitamin D species): 2.5 times | Effect on cellular cholesterol amounts ([3]; lysophosphatidylcholine at <100 μM in mixed micelles): tended to decrease the cellular cholesterol, but the decrease was not significant | Effect on cellular cholesterol amounts ([3]; lysophosphatidylcholine at >150 μM in mixed micelles): significantly decreased the cellular cholesterol

SMILES: C=C1CCC(O)C/C1=C/C=C1\CCCC2(C)C1CCC2C(C)CCC(CC)C(C)C (stereo not drawn) [Vitamin D5]
Vitamin D uptake by differentiated Caco-2 cells ([2]; NoPC mixed micelles (without lysophosphatidylcholine)): lower by vitamin D5 than by other vitamins D | Vitamin D uptake by differentiated Caco-2 cells ([2]; lysoPC mixed micelles (lysophosphatidylcholine 50 μM)): tended to be lower than that of other vitamins D | Vitamin D uptake by dispersed Caco-2 cells (dispersed Caco-2 cells): no tendency toward decreased vitamin-D5 uptake | Anti-rickets activity relative to that of vitamin D2 (rats; UV-irradiated precursors, not crystals): 1/70 | Anti-rickets activity relative to that of vitamins D2 and D3 as UV irradiation precursors (rats; UV-irradiated precursors): 1/40 | Anti-rickets activity relative to that of vitamin D3 (rats; line test, crystal): 1/180

Further lines, with some results ahead:

Vitamin D uptake by dispersed Caco-2 cells (dispersed Caco-2 cells): higher than those of vitamins D2 and D3
SMILES: C=C1CCC(O)C/C1=C/C=C1\CCCC2(C)C1CCC2C(C)/C=C/C(CC)C(C)C (stereo not drawn) [Vitamin D6]
Anti-rickets activity (rats; UV-irradiated precursors): little or no activity

Vitamin D uptake by dispersed Caco-2 cells (dispersed Caco-2 cells): higher than those of vitamins D2 and D3
SMILES: C=C1CCC(O)C/C1=C/C=C1\CCCC2(C)C1CCC2C(C)CC[C@H](C)C(C)C (stereo partly drawn) [Vitamin D4]
Anti-rickets activity as percentage of that of vitamin D2 (rats; line test, crystal): 50–75%

Vitamin D uptake by dispersed Caco-2 cells (dispersed Caco-2 cells): higher than those of vitamins D2 and D3
SMILES: C=C1CCC(O)C/C1=C/C=C1\CCCC2(C)C1CCC2C(C)CC[C@@H](C)C(C)C (stereo partly drawn) [Vitamin D7]
Anti-rickets activity relative to that of vitamin D2 (rats; UV-irradiated precursors): 1/10

Source: article PMC8067314, “Uptake of Vitamins D2, D3, D4, D5, D6, and D7 Solubilized in Mixed Micelles by Human Intestinal Cells, Caco-2, an Enhancing Effect of Lysophosphatidylcholine on the Cellular Uptake, and Estimation of Vitamins D’ Biological Activities” (Nutrients, 2021)
